Data: patent US20110178104A1, “Anti-Heparin Compounds” (POLYMEDIX INC., priority 2010, published 2011)

Key:
Unfractionated heparin = experiment: aPTT clotting assay, UFH 0.4 U/mL in plasma (Example 10); format: biochemical; settings: unfractionated heparin 0.4 U/mL in plasma; aPTT clotting
Description: aPTT clotting Assay: Unfractionated heparin was mixed with plasma at a final concentration of 0.4 U/mL (or concentration which increases aPTT time to between 120 and 300 seconds). […] The ACL Elite Hemostasis analyzer (Beckman Coulter™) was used to add aPTT reagent (HemosIL SynthASil) to supplemented plasma. Clotting was initiated by addition of CaCl2 and time to clot was recorded.

enoxaparin = experiment: FXa amidolytic assay (Example 10), enoxaparin; settings: read-out: Enox FXa EC50; enoxaparin 0.1 ug/ml; human antithrombin, bovine Factor Xa
Description: (§1) Two μl of test agent are added (range between 0.01 and 23 ug/ml) and incubated for 5 minutes at 23° C. Bovine Factor Xa was added to a final concentration of 0.636 nkat/mL and incubated for a further 10 minutes at 23° C.

fondaparinux = experiment: FXa amidolytic assay (Example 10), fondaparinux; settings: read-out: Fondap FXa EC50; fondaparinux 0.02 μg/mL; human antithrombin, bovine Factor Xa
Description: as §1

tinzaparin = experiment: FXa amidolytic assay (Example 10), tinzaparin; settings: read-out: Tinzap FXa EC50; tinzaparin 0.1 ug/ml; human antithrombin, bovine Factor Xa
Description: as §1

Row | SMILES | EC50 (Unfractionated heparin) [nM] | EC50 (enoxaparin) [nM] | EC50 (fondaparinux) [nM] | EC50 (tinzaparin) [nM]
1 | COc1ccc(NC(=O)[C@H](CCCCN)NC(=O)c2cc(NC(=O)[C@H](C)NC(=O)c3cc(NC(=O)[C@H](CCCCN)NC(=O)c4cc(NC(=O)[C@@H](N)CCCCN)ccc4OC)ccc3OC)ccc2OC)cc1C(N)=O [Compound 201] | 6000 | 974 | – | –
2 | COc1ccc(NC(=O)[C@H](CCCCN)NC(=O)c2cc(NC(=O)[C@H](CCCCN)NC(=O)c3cc(NC(=O)[C@H](C)NC(=O)c4cc(NC(=O)[C@@H](N)CCCCN)ccc4OC)ccc3OC)ccc2OC)cc1C(N)=O [Compound 202] | 4550 | 398 | – | –
3 | COc1ccc(NC(=O)[C@H](CCCNC(=N)N)NC(=O)c2cc(NC(=O)[C@H](CCCCN)NC(=O)c3cc(NC(=O)[C@H](CCCCN)NC(=O)c4cc(NC(=O)[C@@H](N)CCCCN)ccc4OC)ccc3OC)ccc2OC)cc1C(N)=O [Compound 203] | 2990 | 283 | – | –
4 | COc1ccc(NC(=O)[C@H](CCCCN)NC(=O)c2cc(NC(=O)[C@H](CCCNC(=N)N)NC(=O)c3cc(NC(=O)[C@H](CCCCN)NC(=O)c4cc(NC(=O)[C@@H](N)CCCCN)ccc4OC)ccc3OC)ccc2OC)cc1C(N)=O [Compound 204] | 3020 | 239 | – | –
5 | COc1ccc(NC(=O)[C@H](CCCCN)NC(=O)c2cc(NC(=O)[C@H](CCCCN)NC(=O)c3cc(NC(=O)[C@H](CCCNC(=N)N)NC(=O)c4cc(NC(=O)[C@@H](N)CCCCN)ccc4OC)ccc3OC)ccc2OC)cc1C(N)=O [Compound 205] | – | 202 | – | –
6 | COc1ccc(NC(=O)[C@H](CCCCN)NC(=O)c2cc(NC(=O)[C@H](CCCCN)NC(=O)c3cc(NC(=O)[C@H](CCCCN)NC(=O)c4cc(NC(=O)[C@@H](N)CCCNC(=N)N)ccc4OC)ccc3OC)ccc2OC)cc1C(N)=O [Compound 206] | 1960 | 148 | – | –
7 | COc1ccc(NC(=O)[C@@H](CCCNC(=N)N)NC(=O)c2cc(NC(=O)[C@@H](CCCNC(=N)N)NC(=O)c3cc(NC(=O)[C@@H](CCCNC(=N)N)NC(=O)c4cc(NC(=O)[C@H](N)CCCNC(N)=O)ccc4OC)ccc3OC)ccc2OC)cc1C(N)=O [Compound 207] | – | 39 | – | –
8 | COc1ccc(C(N)=O)cc1NC(=O)[C@@H](CCCNC(=N)N)NC(=O)c1cc(NC(=O)[C@@H](CCCNC(=N)N)NC(=O)c2cc(NC(=O)[C@@H](CCCNC(=N)N)NC(=O)c3cc(NC(=O)[C@H](N)CCCNC(=N)N)ccc3OC)ccc2OC)ccc1OC [Compound 210] | 2550 | 82 | 1400 | –
9 | COc1ccc(NC(=O)[C@@H](CCCNC(=N)N)NC(=O)c2cc(NC(=O)[C@@H](CCCNC(=N)N)NC(=O)c3cccc(NC(=O)[C@@H](CCCNC(=N)N)NC(=O)c4cc(NC(=O)[C@H](N)CCCNC(=N)N)ccc4OC)n3)ccc2OC)cc1C(N)=O [Compound 211] | 5900 | 137 | 2870 | –
10 | COc1ccc(NC(=O)[C@@H](CCCNC(=N)N)NC(=O)c2cc(NC(=O)[C@@H](CCCNC(=N)N)NC(=O)c3cc(NC(=O)[C@@H](CCCNC(=N)N)NC(=O)c4cccc(NC(=O)[C@H](N)CCCNC(=N)N)c4)ccc3OC)ccc2OC)cc1C(N)=O [Compound 212] | 883 | 73 | 259 | –
11 | COc1ccc(NC(=O)[C@H](CCCCN)NC(=O)c2cc(NC(=O)[C@H](CCCCN)NC(=O)c3cc(NC(=O)[C@@H](N)CCCCN)ccc3OC)ccc2OC)cc1C(=O)N[C@@H](CCCCN)C(=O)Nc1cccc(C(N)=O)c1 [Compound 213] | 893 | 78 | 354 | –
12 | COc1ccc(NC(=O)[C@H](CCCCN)NC(=O)c2cccc(NC(=O)[C@H](CCCCN)NC(=O)c3cc(NC(=O)[C@H](CCCCN)NC(=O)c4cc(NC(=O)[C@@H](N)CCCCN)ccc4OC)ccc3OC)c2)cc1C(N)=O [Compound 214] | 1910 | 87 | 432 | –
13 | COc1ccc(NC(=O)[C@H](CCCCN)NC(=O)c2cc(NC(=O)[C@H](CCCCN)NC(=O)c3cccc(NC(=O)[C@H](CCCCN)NC(=O)c4cc(NC(=O)[C@@H](N)CCCCN)ccc4OC)c3)ccc2OC)cc1C(N)=O [Compound 215] | 2850 | 73 | 288 | –
14 | COc1ccc(NC(=O)[C@H](CCCCN)NC(=O)c2cc(NC(=O)[C@H](CCCCN)NC(=O)c3cc(NC(=O)[C@H](CCCCN)NC(=O)c4cccc(NC(=O)[C@@H](N)CCCCN)c4)ccc3OC)ccc2OC)cc1C(N)=O [Compound 216] | 1220 | 347 | 7870 | 191
15 | CCOc1ccc(NC(=O)[C@@H](CCCNC(=N)N)NC(=O)c2cc(NC(=O)[C@@H](CCCNC(=N)N)NC(=O)c3cc(NC(=O)[C@@H](CCCNC(=N)N)NC(=O)c4cc(NC(=O)[C@H](N)CCCNC(=N)N)ccc4OC)ccc3OC)ccc2OC)cc1C(N)=O [Compound 217] | 1120 | 74 | 252 | –
16 | CCOc1ccc(NC(=O)[C@@H](CCCNC(=N)N)NC(=O)c2cc(NC(=O)[C@H](N)CCCNC(=N)N)ccc2OC)cc1C(=O)N[C@H](CCCNC(=N)N)C(=O)Nc1ccc(OC)c(C(=O)N[C@H](CCCNC(=N)N)C(=O)Nc2ccc(OC)c(C(N)=O)c2)c1 [Compound 218] | 853 | 74 | 176 | –
17 | COc1cc(OC)c(C(=O)N[C@H]2CC[C@H](NC(=O)c3cc(C(=O)N[C@H]4CC[C@H](NC(=O)c5cc(C(=O)NCCN(C)C)c(OC)cc5OC)CC4)c(OCCCCCNC(=N)N)cc3OCCCCCNC(=N)N)CC2)cc1C(=O)NCCN(C)C [Compound 220] | 5450 | 125 | – | –
18 | COc1cc(OC)c(C(=O)N[C@H]2CC[C@H](NC(=O)c3cc(C(=O)NCCN(C)C)c(OCCCCCNC(=N)N)cc3OCCCCCNC(=N)N)CC2)cc1C(=O)N[C@H]1CC[C@@H](NC(=O)c2cc(C(=O)NCCN(C)C)c(OCCCCCNC(=N)N)cc2OCCCCCNC(=N)N)CC1 [Compound 222] | 2590 | 173 | 955 | 115
19 | COc1ccc(NC(=O)[C@H](CCCNC(=N)N)NC(=O)c2cc(NC(=O)[C@H](CCCNC(=N)N)NC(=O)c3cc(NC(=O)[C@H](CCCNC(=N)N)NC(=O)c4cc(NC(=O)[C@H](C)NC(=O)CCCCNC(=N)N)ccc4OC)ccc3OC)ccc2OC)cc1C(N)=O [Compound 223] | 4090 | 316 | 802 | 248
20 | COc1cc(OC)c(C(=O)N[C@H]2CC[C@@H](NC(=O)c3cc(C(=O)NCCN(C)C)c(OCCNC(=N)N)cc3OCCNC(=N)N)CC2)cc1C(=O)N[C@H]1CC[C@@H](NC(=O)c2cc(C(=O)NCCN(C)C)c(OCCNC(=N)N)cc2OCCNC(=N)N)CC1 [Compound 225] | 12100 | 1060 | – | 359
21 | COc1cc(OC)c(C(=O)N[C@H]2CC[C@H](NC(=O)c3cc(C(=O)NCCN(C)C)c(OCCNC(=N)N)cc3OCCNC(=N)N)CC2)cc1C(=O)N[C@H]1CC[C@H](NC(=O)c2cc(C(=O)NCCN(C)C)c(OCCNC(=N)N)cc2OCCNC(=N)N)CC1 [Compound 226] | 12900 | 852 | – | 343
22 | CN(C)CCNC(=O)c1cc(C(=O)NC2CCC(NC(=O)c3cc(C(=O)NCCN(C)C)c(OCCCCCN)cc3OCCCCCN)CC2)c(OCCCCCN)cc1OCCCCCN (stereo not shown) [Compound 227] | > 10000 | – | – | –
23 | COc1ccc(NC(=O)[C@@H](CCCNC(=N)N)NC(=O)CCCCNC(=N)N)cc1C(=O)N[C@H](CCCNC(=N)N)C(=O)Nc1ccc(OC)c(C(=O)N[C@H](CCCNC(=N)N)C(=O)Nc2ccc(OC)c(C(=O)N[C@H](CCCNC(=N)N)C(=O)Nc3ccc(OCCNC(=N)N)c(C(N)=O)c3)c2)c1 [Compound 291] | 2480 | 47 | 1180 | –
24 | COc1ccc(NC(=O)[C@H](CCCCN)NC(=O)c2cc(NC(=O)[C@H](CCCCN)NC(=O)c3cc(NC(=O)[C@H](CCCCN)NC(=O)c4cc(NC(=O)[C@H](CCCCN)NC(=N)N)ccc4OC)ccc3OC)ccc2OC)cc1C(N)=O [Compound 292] | – | 450 | 4790 | –
25 | COc1ccc(NC(=O)[C@@H](CCCCN)NC(=O)c2c(OC)ccc(NC(=O)[C@@H](CCCCN)NC(=O)c3c(OC)ccc(NC(=O)[C@@H](CCCCN)NC(=O)c4c(OC)ccc(NC(=O)[C@H](N)CCCCN)c4OC)c3OC)c2OC)c(OC)c1C(N)=O [Compound 293] | – | > 10000 | > 10000 | –
26 | CCOC(=O)CC(=O)N[C@@H](CCCCN)C(=O)Nc1ccc(OC)c(C(=O)N[C@@H](CCCCN)C(=O)Nc2ccc(OC)c(C(=O)N[C@@H](CCCCN)C(=O)Nc3ccc(OC)c(C(=O)N[C@@H](CCCCN)C(=O)Nc4ccc(OC)c(C(N)=O)c4)c3)c2)c1 [Compound 337] | – | 225 | 1830 | 174
27 | COC(=O)CCC(=O)N[C@@H](CCCCN)C(=O)Nc1ccc(OC)c(C(=O)N[C@@H](CCCCN)C(=O)Nc2ccc(OC)c(C(=O)N[C@@H](CCCCN)C(=O)Nc3ccc(OC)c(C(=O)N[C@@H](CCCCN)C(=O)Nc4ccc(OC)c(C(N)=O)c4)c3)c2)c1 [Compound 338] | – | 241 | 2750 | 176
28 | COC(=O)CCCC(=O)N[C@@H](CCCCN)C(=O)Nc1ccc(OC)c(C(=O)N[C@@H](CCCCN)C(=O)Nc2ccc(OC)c(C(=O)N[C@@H](CCCCN)C(=O)Nc3ccc(OC)c(C(=O)N[C@@H](CCCCN)C(=O)Nc4ccc(OC)c(C(N)=O)c4)c3)c2)c1 [Compound 341] | – | 198 | 1580 | 138
29 | COc1ccc(NC(=O)[C@H](CCCCN)NC(=O)c2cc(NC(=O)[C@H](CCCCN)NC(=O)c3cc(NC(=O)[C@H](CCCCN)NC(=O)c4cc(NC(=O)[C@H](CCCCN)NC(=O)c5ccccc5C(=O)O)ccc4OC)ccc3OC)ccc2OC)cc1C(N)=O [Compound 343] | – | 235 | 932 | 201
